Experimental data published in US20210353658A1, “COMPOSITION AND METHOD OF INHIBITING CORTISONE REDUCTASE” (Amorepacific Corporation, priority 2018, published 2021).

How the values were obtained:
[1] = target: T1, 11β-hydroxysteroid dehydrogenase type 1 (Homo sapiens, UniProt P28845); assay: Cortisone reductase activity inhibition: cortisol concentration in the culture solution of UVB-irradiated, cortisone-treated NHEK, by ELISA; assay type: cell-based; conditions: UVB 25 mJ/cm^2, cortisone 10 μg/ml, compound 10 μg/ml, cultured 4 days, ELISA (FIG. 1)
T1 construct: endogenous in cells; host or cells: normal human epidermal keratinocytes (NHEK), UVB-irradiated
Experimental: (§1) Normal human epidermal keratinocytes (NHEK) were cultured in a 6-well plate incubator. Specifically, the normal human epidermal keratinocytes (NHEK) were cultured for 4 days by replacing it with phosphate-buffered saline (PBS) after 24 hours to irradiate UVB (25 mJ/cm^2) and adding cortisone (10 μg/ml) and a compound represented by Chemical Formula 1-1 (glucocerebrosides (soy, 98%), Avanti Polar Lipids, Inc.) to NHEK culture media.
Subsequently, the cell culture solution was collected to measure a cortisol concentration in an ELISA method, and the results are shown in FIG. 1. […] Accordingly, a composition including the compound represented by Chemical Formula 1-1 as an active ingredient according to an embodiment turned out to inhibit activity of 11β-hydroxysteroid dehydrogenase type 1 that is cortisone reductase.

[2] = system: keratinocyte differentiation markers of KRT1 and KRT10; assay: RT-qPCR (TAQMAN real-time PCR) gene expression of keratinocyte differentiation markers in UVB-irradiated NHEK; assay type: cell-based, human; conditions: compound 10 μg/ml
Experimental: as §1
In addition, the normal human epidermal keratinocytes (NHEK) were treated with TRIZOL to separate RNA, which was used to synthesize cDNA through RT-PCR (reverse transcriptional polymerase chain reaction). The synthesized cDNA was used to perform TAQMAN® real-time PCR and measure gene expression amounts of keratinocyte differentiation markers of KRT1 and KRT10, and the results are shown in FIGS. 2 and 3. Referring to FIGS. 2 and 3, in the well to which the compound represented by Chemical Formula 1 (10 μg/ml) was added, the gene expression of the keratinocyte differentiation markers (KRT10, KRT1) inhibited by ultraviolet (UVB) rays in the keratinocytes was increased. […]

T1 sequence (P28845 whole entry): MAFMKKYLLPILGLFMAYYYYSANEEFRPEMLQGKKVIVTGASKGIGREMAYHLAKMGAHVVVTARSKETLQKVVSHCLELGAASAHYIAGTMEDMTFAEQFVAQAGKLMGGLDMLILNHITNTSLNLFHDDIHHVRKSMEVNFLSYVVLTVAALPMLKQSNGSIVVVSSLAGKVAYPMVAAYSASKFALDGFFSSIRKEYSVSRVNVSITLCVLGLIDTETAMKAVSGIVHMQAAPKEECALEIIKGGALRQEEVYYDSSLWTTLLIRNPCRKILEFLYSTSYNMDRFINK

SMILES: CCCCCCCCC/C=C/CC/C=C/[C@@H](O)[C@H](CO[C@@H]1OC(CO)[C@H](O)C(O)C1O)NC(=O)C(O)CCCCCCCCCCCCCC (stereo partly drawn) [Chemical Formula 1-1, glucocerebrosides (soy, 98%)]
- cortisol concentration in cell culture solution [1]: greatly did not increase
- gene expression of keratinocyte differentiation marker KRT10 inhibited by UVB ([2]; RT-qPCR (FIG. 2)): increased
- gene expression of keratinocyte differentiation marker KRT1 inhibited by UVB ([2]; RT-qPCR (FIG. 3)): increased
